Test system: SYO-1 complex spheroid growth, percent test/control
Assay: Anticancer human tumor SYO-1 cell line growth inhibition [Asc];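 also: compound exposure lasted 7 days after spheroids grew 3 days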;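 as to viability, T/C: 100% = DMSO vehicle control viability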
Conditions: for IC50: curve of first compound; for viability, T/C: stronger effect = lower value
Outline: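 Complex spheroids combining tumor cells with HUVEC endothelial cells and human MSCs, at 37 degrees C, 5% CO2; agents tested alone or combined, half-log dilutions from at or near clinical Cmax, or 10 microM if Cmax unknown.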

[1] = second compound 0.0316 µM, first compound 0.000316 µM
[2] = second compound 0.0316 µM, first compound 0.001 µM
[3] = second compound 0.0316 µM, first compound 0.00316 µM
[4] = second compound 0.0316 µM, first compound 0.01 µM
[5] = second compound 0.0316 µM, first compound 0.0316 µM
[6] = second compound 0.0316 µM, first compound 0.1 µM
[7] = second compound 0.1 µM, first compound 0.000316 µM
[8] = second compound 0.1 µM, first compound 0.001 µM
[9] = second compound 0.1 µM, first compound 0.00316 µM
[10] = second compound 0.1 µM, first compound 0.01 µM
[11] = second compound 0.1 µM, first compound 0.0316 µM
[12] = second compound 0.1 µM, first compound 0.1 µM
[13] = second compound 0.316 µM, first compound 0.000316 µM
[14] = second compound 0.316 µM, first compound 0.001 µM
[15] = second compound 0.316 µM, first compound 0.00316 µM
[16] = second compound 0.316 µM, first compound 0.01 µM
[17] = second compound 0.316 µM, first compound 0.0316 µM
[18] = second compound 0.316 µM, first compound 0.1 µM
[19] = second compound 1 µM, first compound 0.000316 µM
[20] = second compound 1 µM, first compound 0.001 µM
[21] = second compound 1 µM, first compound 0.00316 µM
[22] = second compound 1 µM, first compound 0.01 µM
[23] = second compound 1 µM, first compound 0.0316 µM
[24] = second compound 1 µM, first compound 0.1 µM
[25] = second compound 3.16 µM, first compound 0.000316 µM
[26] = second compound 3.16 µM, first compound 0.001 µM
[27] = second compound 3.16 µM, first compound 0.00316 µM
[28] = second compound 3.16 µM, first compound 0.01 µM
[29] = second compound 3.16 µM, first compound 0.0316 µM
[30] = second compound 3.16 µM, first compound 0.1 µM
[31] = second compound 10 µM, first compound 0.000316 µM
[32] = second compound 10 µM, first compound 0.001 µM
[33] = second compound 10 µM, first compound 0.00316 µM
[34] = second compound 10 µM, first compound 0.01 µM
[35] = second compound 10 µM, first compound 0.0316 µM
[36] = second compound 10 µM, first compound 0.1 µM

SMILES: Cn1ncnc1[C@H]1c2n[nH]c(=O)c3cc(F)cc(c23)N[C@@H]1c1ccc(F)cc1 + Cc1c(S(C)(=O)=O)c(-c2cc(F)cc(N3CCN(c4ccc(NS(=O)(=O)c5ccc(NC(CCN6CCC(C(=O)OCCCP(=O)(O)O)CC6)CSc6ccccc6)c(S(=O)(=O)C(F)(F)F)c5)cc4)CC3)c2)c(-c2ccc(Cl)cc2)n1C(C)C
- IC50 (second compound 0.0316 µM): 19.3 nM
- IC50 (second compound 0.1 µM): 18.1 nM
- IC50 (second compound 0.316 µM): 15.3 nM
- IC50 (second compound 1 µM): 10.2 nM
- IC50 (second compound 3.16 µM): 5.98 nM
- IC50 (second compound 10 µM): 4.59 nM
- viability, T/C [1]: 108%
- viability, T/C [2]: 96.5%
- viability, T/C [3]: 99.6%
- viability, T/C [4]: 80%
- viability, T/C [5]: 27.4%
- viability, T/C [6]: 6.64%
- viability, T/C [7]: 97.6%
- viability, T/C [8]: 99%
- viability, T/C [9]: 87.1%
- viability, T/C [10]: 85.2%
- viability, T/C [11]: 17.2%
- viability, T/C [12]: 4.83%
- viability, T/C [13]: 97.1%
- viability, T/C [14]: 95.4%
- viability, T/C [15]: 94.5%
- viability, T/C [16]: 73.6%
- viability, T/C [17]: 9.3%
- viability, T/C [18]: 3.79%
- viability, T/C [19]: 93.4%
- viability, T/C [20]: 98.6%
- viability, T/C [21]: 88.6%
- viability, T/C [22]: 51.5%
- viability, T/C [23]: 7.18%
- viability, T/C [24]: 3.35%
- viability, T/C [25]: 97.2%
- viability, T/C [26]: 89.5%
- viability, T/C [27]: 80.1%
- viability, T/C [28]: 26%
- viability, T/C [29]: 4.8%
- viability, T/C [30]: 2.64%
- viability, T/C [31]: 85.9%
- viability, T/C [32]: 90%
- viability, T/C [33]: 65.6%
- viability, T/C [34]: 16.4%
- viability, T/C [35]: 3.2%
- viability, T/C [36]: 2.36%

SMILES: NC1CCC(NC2CC2c2ccccc2)CC1 (stereo unspecified) + Cc1c(S(C)(=O)=O)c(-c2cc(F)cc(N3CCN(c4ccc(NS(=O)(=O)c5ccc(NC(CCN6CCC(C(=O)OCCCP(=O)(O)O)CC6)CSc6ccccc6)c(S(=O)(=O)C(F)(F)F)c5)cc4)CC3)c2)c(-c2ccc(Cl)cc2)n1C(C)C
- IC50 (second compound 0.0316 µM): > 100 nM
- IC50 (second compound 0.1 µM): > 100 nM
- IC50 (second compound 0.316 µM): > 100 nM
- IC50 (second compound 1 µM): > 100 nM
- IC50 (second compound 3.16 µM): > 100 nM
- IC50 (second compound 10 µM): > 100 nM
- viability, T/C [1]: 100%
- viability, T/C [2]: 92.1%
- viability, T/C [3]: 90.5%
- viability, T/C [4]: 84.8%
- viability, T/C [5]: 86.9%
- viability, T/C [6]: 89%
- viability, T/C [7]: 96.5%
- viability, T/C [8]: 92.7%
- viability, T/C [9]: 86.3%
- viability, T/C [10]: 87.1%
- viability, T/C [11]: 91.8%
- viability, T/C [12]: 86.5%
- viability, T/C [13]: 105%
- viability, T/C [14]: 91.8%
- viability, T/C [15]: 87.9%
- viability, T/C [16]: 91.7%
- viability, T/C [17]: 89.1%
- viability, T/C [18]: 86.9%
- viability, T/C [19]: 92.2%
- viability, T/C [20]: 88.5%
- viability, T/C [21]: 96.9%
- viability, T/C [22]: 92.3%
- viability, T/C [23]: 90.6%
- viability, T/C [24]: 85.8%
- viability, T/C [25]: 91.3%
- viability, T/C [26]: 85.3%
- viability, T/C [27]: 88.7%
- viability, T/C [28]: 85.8%
- viability, T/C [29]: 79.8%
- viability, T/C [30]: 87.2%
- viability, T/C [31]: 85.7%
- viability, T/C [32]: 85.4%
- viability, T/C [33]: 80.5%
- viability, T/C [34]: 82.4%
- viability, T/C [35]: 83.3%
- viability, T/C [36]: 79.7%

SMILES: Cc1nc(N2CCC3(CC2)COC(C)C3N)c(CO)nc1Sc1ccnc(N)c1Cl (stereo unspecified) + Cc1c(S(C)(=O)=O)c(-c2cc(F)cc(N3CCN(c4ccc(NS(=O)(=O)c5ccc(NC(CCN6CCC(C(=O)OCCCP(=O)(O)O)CC6)CSc6ccccc6)c(S(=O)(=O)C(F)(F)F)c5)cc4)CC3)c2)c(-c2ccc(Cl)cc2)n1C(C)C
- IC50 (second compound 0.0316 µM): > 3000 nM
- IC50 (second compound 0.1 µM): > 3000 nM
- IC50 (second compound 0.316 µM): > 3000 nM
- IC50 (second compound 1 µM): > 3000 nM
- IC50 (second compound 3.16 µM): > 3000 nM
- IC50 (second compound 10 µM): > 3000 nM
- viability, T/C (second compound 0.0316 µM, first compound 0.00949 µM): 93.6%
- viability, T/C (second compound 0.0316 µM, first compound 0.03 µM): 99.6%
- viability, T/C (second compound 0.0316 µM, first compound 0.0949 µM): 91.7%
- viability, T/C (second compound 0.0316 µM, first compound 0.3 µM): 98.8%
- viability, T/C (second compound 0.0316 µM, first compound 0.949 µM): 110%
- viability, T/C (second compound 0.0316 µM, first compound 3 µM): 102%
- viability, T/C (second compound 0.1 µM, first compound 0.00949 µM): 96%
- viability, T/C (second compound 0.1 µM, first compound 0.03 µM): 94.8%
- viability, T/C (second compound 0.1 µM, first compound 0.0949 µM): 97.3%
- viability, T/C (second compound 0.1 µM, first compound 0.3 µM): 103%
- viability, T/C (second compound 0.1 µM, first compound 0.949 µM): 100%
- viability, T/C (second compound 0.1 µM, first compound 3 µM): 93.7%
- viability, T/C (second compound 0.316 µM, first compound 0.00949 µM): 91.3%
- viability, T/C (second compound 0.316 µM, first compound 0.03 µM): 88.2%
- viability, T/C (second compound 0.316 µM, first compound 0.0949 µM): 98.9%
- viability, T/C (second compound 0.316 µM, first compound 0.3 µM): 97.5%
- viability, T/C (second compound 0.316 µM, first compound 0.949 µM): 103%
- viability, T/C (second compound 0.316 µM, first compound 3 µM): 92.3%
- viability, T/C (second compound 1 µM, first compound 0.00949 µM): 92.2%
- viability, T/C (second compound 1 µM, first compound 0.03 µM): 95.7%
- viability, T/C (second compound 1 µM, first compound 0.0949 µM): 93.2%
- viability, T/C (second compound 1 µM, first compound 0.3 µM): 99.9%
- viability, T/C (second compound 1 µM, first compound 0.949 µM): 98.7%
- viability, T/C (second compound 1 µM, first compound 3 µM): 91%
- viability, T/C (second compound 3.16 µM, first compound 0.00949 µM): 95.3%
- viability, T/C (second compound 3.16 µM, first compound 0.03 µM): 91.2%
- viability, T/C (second compound 3.16 µM, first compound 0.0949 µM): 89%
- viability, T/C (second compound 3.16 µM, first compound 0.3 µM): 91.4%
- viability, T/C (second compound 3.16 µM, first compound 0.949 µM): 95.5%
- viability, T/C (second compound 3.16 µM, first compound 3 µM): 89.3%
- viability, T/C (second compound 10 µM, first compound 0.00949 µM): 84%
- viability, T/C (second compound 10 µM, first compound 0.03 µM): 82.8%
- viability, T/C (second compound 10 µM, first compound 0.0949 µM): 94.8%
- viability, T/C (second compound 10 µM, first compound 0.3 µM): 87.2%
- viability, T/C (second compound 10 µM, first compound 0.949 µM): 95.8%
- viability, T/C (second compound 10 µM, first compound 3 µM): 78.5%

Source: PubChem BioAssay AID1963432 (Molecular Pharmacology Branch, DTP, NCI, 2024)
